Assay results as given in ChEMBL document CHEMBL4823324, “Discovery of BMS-986318, a Potent Nonbile Acid FXR Agonist for the Treatment of Nonalcoholic Steatohepatitis” (ACS Med Chem Lett, 2021).

Columns and labels:
[1] = biological target: T1, Peroxisome proliferator-activated receptor alpha (Homo sapiens, UniProt Q07869); assay: Activation of PPARalpha LBD (unknown origin) co-expressed with Gal4UAS-luciferase reporter in HEK293 cells incubated for 24 hrs by Steady-Glo luciferase reporter gene based luminescence analysis; type: cell-based
T1 sequence (Q07869 whole entry): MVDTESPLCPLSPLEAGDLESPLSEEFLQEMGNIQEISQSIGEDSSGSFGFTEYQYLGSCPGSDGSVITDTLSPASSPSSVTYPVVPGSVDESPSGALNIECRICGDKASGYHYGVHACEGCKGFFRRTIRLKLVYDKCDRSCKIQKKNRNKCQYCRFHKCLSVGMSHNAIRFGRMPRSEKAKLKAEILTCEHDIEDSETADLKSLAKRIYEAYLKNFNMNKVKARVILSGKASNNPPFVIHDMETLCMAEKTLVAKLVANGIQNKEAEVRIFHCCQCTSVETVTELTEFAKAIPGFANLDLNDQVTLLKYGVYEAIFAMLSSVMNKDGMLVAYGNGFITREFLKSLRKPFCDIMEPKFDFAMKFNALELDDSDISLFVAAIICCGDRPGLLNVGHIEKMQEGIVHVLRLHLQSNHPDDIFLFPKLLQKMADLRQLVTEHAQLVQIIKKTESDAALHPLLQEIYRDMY

[2] = Cmax in C57B6 mouse at 1 mg/kg, iv; type: ADME, organism-based; design: route intravenous, dose 1 mg/kg; details: in vivo
[3] = Half life in C57B6 mouse at 1 mg/kg, iv; type: ADME, organism-based; details: in vivo
[4] = Plasma protein binding in C57B6 mouse assessed as unbound fraction at 1 mg/kg, iv; type: ADME, organism-based; details: in vivo
[5] = Half life in C57B6 mouse at 2 mg/kg, po administered as suspension; type: ADME, organism-based; details: in vivo
[6] = Volume of distribution at steady state in C57B6 mouse at 1 mg/kg, iv; type: ADME, organism-based; details: in vivo, read-out: Vdss
Androgen receptor = biological target: T2, Androgen receptor (Homo sapiens, UniProt P10275); assay: Activation of androgen receptor (unknown origin) by fluorescence polarization based competition assay
T2 sequence (P10275 whole entry): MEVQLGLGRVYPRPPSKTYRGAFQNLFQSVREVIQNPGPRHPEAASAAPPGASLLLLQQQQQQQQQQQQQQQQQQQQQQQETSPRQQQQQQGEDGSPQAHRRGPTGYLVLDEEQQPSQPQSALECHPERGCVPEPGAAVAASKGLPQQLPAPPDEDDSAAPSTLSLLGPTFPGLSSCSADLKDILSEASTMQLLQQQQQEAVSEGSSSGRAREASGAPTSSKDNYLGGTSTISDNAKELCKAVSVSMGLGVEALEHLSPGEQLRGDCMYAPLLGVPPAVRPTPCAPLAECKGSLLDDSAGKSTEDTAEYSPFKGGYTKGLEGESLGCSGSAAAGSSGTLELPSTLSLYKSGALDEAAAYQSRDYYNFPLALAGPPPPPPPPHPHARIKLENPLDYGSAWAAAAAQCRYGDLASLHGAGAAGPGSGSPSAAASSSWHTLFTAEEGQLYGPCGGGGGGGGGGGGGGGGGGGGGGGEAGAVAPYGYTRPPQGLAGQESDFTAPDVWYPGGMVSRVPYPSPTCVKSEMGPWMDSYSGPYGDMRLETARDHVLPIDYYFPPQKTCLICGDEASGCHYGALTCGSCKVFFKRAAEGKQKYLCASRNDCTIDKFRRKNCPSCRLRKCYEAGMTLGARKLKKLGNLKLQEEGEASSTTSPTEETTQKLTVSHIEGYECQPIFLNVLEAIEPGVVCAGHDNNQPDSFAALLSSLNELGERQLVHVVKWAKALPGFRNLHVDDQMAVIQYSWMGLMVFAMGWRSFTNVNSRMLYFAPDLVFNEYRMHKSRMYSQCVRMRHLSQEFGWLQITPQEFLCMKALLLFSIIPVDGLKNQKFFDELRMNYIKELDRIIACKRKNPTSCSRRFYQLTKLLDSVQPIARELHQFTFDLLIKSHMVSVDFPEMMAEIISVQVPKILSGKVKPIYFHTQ

[7] = biological target: T3, Peroxisome proliferator-activated receptor gamma (Homo sapiens, UniProt P37231); assay: Activation of PPARgamma LBD (unknown origin) co-expressed with Gal4UAS-luciferase reporter in HEK293 cells incubated for 24 hrs by Steady-Glo luciferase reporter gene based luminescence analysis; type: cell-based
T3 sequence (P37231 whole entry): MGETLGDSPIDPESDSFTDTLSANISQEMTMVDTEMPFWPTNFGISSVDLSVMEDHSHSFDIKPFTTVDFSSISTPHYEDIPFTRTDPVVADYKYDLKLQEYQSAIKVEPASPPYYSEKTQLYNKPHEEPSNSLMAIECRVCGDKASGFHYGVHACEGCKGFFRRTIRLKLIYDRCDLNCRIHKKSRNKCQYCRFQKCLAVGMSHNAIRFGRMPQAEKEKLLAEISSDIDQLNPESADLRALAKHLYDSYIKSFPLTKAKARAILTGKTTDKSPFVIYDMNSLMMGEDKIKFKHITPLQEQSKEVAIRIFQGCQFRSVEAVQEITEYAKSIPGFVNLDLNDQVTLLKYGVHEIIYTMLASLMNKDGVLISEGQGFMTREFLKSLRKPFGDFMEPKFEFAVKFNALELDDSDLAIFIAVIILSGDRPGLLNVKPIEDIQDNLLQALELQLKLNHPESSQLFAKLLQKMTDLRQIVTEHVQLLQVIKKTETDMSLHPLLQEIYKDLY

[8] = biological target: T4, Nuclear receptor ROR-gamma (Homo sapiens, UniProt P51449); assay: Displacement of [3H]25-hydroxycholesterol from human N-terminal His-tagged RORgammaT LBD (262 to 508 residues) expressed in Escherichia coli preincubated for 10 mins followed by addition [3H]25-OH cholesterol and measured after 10 mins by scintillation proximity assay
T4 sequence (P51449 whole entry): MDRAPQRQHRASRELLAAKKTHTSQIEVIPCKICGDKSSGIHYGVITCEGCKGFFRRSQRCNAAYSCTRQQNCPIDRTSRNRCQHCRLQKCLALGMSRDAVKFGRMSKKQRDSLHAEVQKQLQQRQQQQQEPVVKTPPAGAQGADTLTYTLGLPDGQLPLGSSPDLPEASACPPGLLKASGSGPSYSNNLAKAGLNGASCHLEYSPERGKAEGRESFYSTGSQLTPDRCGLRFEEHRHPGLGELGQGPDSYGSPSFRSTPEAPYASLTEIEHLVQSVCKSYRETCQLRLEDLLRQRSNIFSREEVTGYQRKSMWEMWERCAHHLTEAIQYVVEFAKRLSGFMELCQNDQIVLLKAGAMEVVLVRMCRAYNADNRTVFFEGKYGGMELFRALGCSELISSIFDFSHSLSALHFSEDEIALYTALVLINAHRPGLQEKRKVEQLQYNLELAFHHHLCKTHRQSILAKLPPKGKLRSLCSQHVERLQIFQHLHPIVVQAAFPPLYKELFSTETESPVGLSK

O=C(O)c1cc(C(F)(F)F)c2cc(N3CCC4(C=C(c5c(-c6c(Cl)cncc6Cl)noc5C5CC5)C4)CC3)ccc2n1
EC50 [1]: > 40 µM | Cmax [2]: 1490 nM | half-life [3]: 2.6 h | Fu [4]: < 0.01% | half-life [5]: 2 h | Vd [6]: 0.56 L/kg | EC50 (Androgen receptor): > 40 µM | EC50 [7]: > 40 µM | IC50 [8]: > 40 µM
